According to ChEMBL document CHEMBL6153126, “Design, Synthesis, and Activity Evaluation of Novel Bifenamide Dual-Target Antibacterial Inhibitors and Carrier Based on Infectious Microenvironment” (J Med Chem, 2025):

How the values were obtained:
[1] = test system: Klebsiella pneumoniae; experiment: Antimicrobial activity against Klebsiella pneumoniae ATCC 13883 assessed as inhibition of microbial growth incubated for 64 hrs by broth-microdilution assay; format: functional
[2] = test system: Pseudomonas aeruginosa; experiment: Antimicrobial activity against Pseudomonas aeruginosa ATCC 9027 assessed as inhibition zone; format: functional; details: time 64 hrs
[3] = test system: Pseudomonas aeruginosa; experiment: Antimicrobial activity against Pseudomonas aeruginosa ATCC 9027 assessed as inhibition of microbial growth incubated for 64 hrs by broth-microdilution assay; format: functional
[4] = test system: Klebsiella pneumoniae; experiment: Antimicrobial activity against Klebsiella pneumoniae ATCC 13883 assessed as inhibition zone; format: functional
[5] = test system: Salmonella typhimurium; experiment: Antimicrobial activity against Salmonella typhimurium ATCC 14028 assessed as inhibition of microbial growth incubated for 64 hrs by broth-microdilution assay; format: functional, Salmonella enterica subsp. enterica serovar Typhimurium; details: Salmonella enterica
[6] = test system: Escherichia coli; experiment: Antimicrobial activity against Escherichia coli ATCC 8739 assessed as inhibition of microbial growth incubated for 64 hrs by broth-microdilution assay; format: functional

| Compound | MIC50 [1] | inhibition zone (IZ) [2] | MIC50 [3] | inhibition zone (IZ) [4] | MIC50 [5] | MIC50 [6] |
| --- | --- | --- | --- | --- | --- | --- |
| Cc1c(CN2CCC(C(=O)NC(C(=O)NO)C(C)O)CC2)cccc1-c1ccccc1 (stereo not given) | 0.5 µg/mL | 14.1 mm | 1 µg/mL | 15.8 mm | 1 µg/mL | 2 µg/mL |
| CCn1cc(C(=O)O)c(=O)c2cc(F)c(N3CCNCC3)cc21 [NORFLOXACIN] | 1 µg/mL | 14.8 mm | 1 µg/mL | 15.9 mm | 2 µg/mL | 0.5 µg/mL |
| COc1cc(OCc2cccc(-c3ccccc3)c2C)cc(OC)c1CN1CCCC1C(=O)NO (stereo not given) | 1 µg/mL | 9.1 mm | 1 µg/mL | 11.3 mm | ≥ 16 µg/mL | 2 µg/mL |
| COc1cc(OCc2cccc(-c3ccccc3)c2C)cc(OC)c1CNC(CO)C(=O)NO (stereo not given) | 8 µg/mL | 8.1 mm | 4 µg/mL | <=6 mm | 4 µg/mL | ≥ 16 µg/mL |
| Cc1c(CN2CCC(C(=O)NC(C(=O)NO)C(C)C)CC2)cccc1-c1ccccc1 (stereo not given) | 4 µg/mL | <=6 mm | 8 µg/mL | 9.5 mm | 4 µg/mL | 2 µg/mL |
| COc1cc(OCc2cccc(-c3ccccc3)c2C)cc(OC)c1CNC(C(=O)NO)C(C)C (stereo not given) | ≥ 16 µg/mL | 6.3 mm | 8 µg/mL | <=6 mm | ≥ 16 µg/mL | 4 µg/mL |
| Cc1c(COc2cccc(CN3CCCC3C(=O)NO)c2)cccc1-c1ccccc1 (stereo not given) | ≥ 16 µg/mL | <=6 mm | 4 µg/mL | 7.2 mm | 4 µg/mL | ≥ 16 µg/mL |
| Cc1c(CN2CCC(C(=O)NC(CO)C(=O)NO)CC2)cccc1-c1ccccc1 (stereo not given) | 2 µg/mL | 10.1 mm | 4 µg/mL | 11.6 mm | 8 µg/mL | ≥ 16 µg/mL |
| Cc1c(COc2cccc(CNC(C(=O)NO)C(C)C)c2)cccc1-c1ccccc1 (stereo not given) | 4 µg/mL | 6.6 mm | ≥ 16 µg/mL | 8.6 mm | 4 µg/mL | 8 µg/mL |
| COc1cc(OCc2cccc(-c3ccccc3)c2C)cc(OC)c1CNC(C(=O)NO)C(C)O (stereo not given) | 1 µg/mL | 8.9 mm | 1 µg/mL | 9.4 mm | 4 µg/mL | 2 µg/mL |
